Laboratory results reported in patent US20070072883A1, “Fungicidal mixtures” (BASF Aktiengesellschaft, priority 2003, published 2007).

Assays:
[1] = system: Cochliobolus miyabeanus; assay: Activity against brown spot of rice caused by Cochliobolus miyabeanus, protective application; type: in vivo; settings: rice seedlings "Tai-Nong 67", six days after inoculation
Procedure: (§1) The active compounds, separately or jointly, were prepared as a stock solution comprising 0.25% by weight of active compound in acetone or DMSO. 1% by weight of the emulsifier Uniperol® EL (wetting agent having emulsifying and dispersant action based on ethoxylated alkylphenols) was added to this solution, and the mixture was diluted with water to the desired concentration.
Use Example 1—Activity Against Brown Spot of Rice Caused by Cochliobolus miyabeanus, Protective Application Leaves of potted rice seedlings of the cultivar “Tai-Nong 67” were sprayed to runoff point with an aqueous suspension of the concentration of active compound stated below. The next day, the plants were inoculated with an aqueous spore suspension of Cochliobolus miyabeanus. The test plants were then placed in climatized chambers at 22-24° C. and 95-99% relative atmospheric humidity for six days. The extent of the development of the infection on the leaves was then determined visually.
Evaluation was carried out by determining the percentage of infected leaf area. These percentages were converted into efficacies.
The efficacy (E) is calculated as follows using Abbot's formula: E=(1−α/β)·100 α corresponds to the fungicidal infection of the treated plants in % and β corresponds to the fungicidal infection of the untreated (control) plants in % An efficacy of 0 means that the infection level of the treated plants corresponds to that of the untreated control plants; an efficacy of 100 means that the treated plants are not infected.
The expected efficacies of mixtures of active compounds are determined using Colby's formula (R. S. Colby, Weeds, 15, 20-22, 1967) and compared with the observed efficacies.
Colby's formula: E=x+y−x·y/100 • E expected efficacy, expressed in % of the untreated control, when using the mixture of the active compounds A and B at the concentrations a and b • x efficacy, expressed in % of the untreated control, when using the active compound A at the concentration a y efficacy, expressed in % of the untreated control, when using the active compound B at the concentration b

[2] = system: Corticium sasakii; assay: Activity against sheath blight on rice caused by Corticium sasakii; type: in vivo; settings: rice plants "Tai-Nong 67", after 11 days
Procedure: as §1
Use Example 2—Activity Against Sheath Blight on Rice Caused by Corticium sasakii
Pots with rice plants of the cultivar “Tai-Nong 67”, were sprayed to runoff point with an aqueous suspension having the concentration of active compounds stated below. The next day, oat grains infected with Corticium sasakii were placed into the pots (in each case 5 grains per pot). The plants were then placed in a chamber at 26° C. and maximum atmospheric humidity. After 11 days, the sheath blight on the untreated but infected control plants had developed to such an extent that the infection could be determined visually in %.
Evaluation was carried out analogously to Example 1.

Compound | Efficacy in % of the untreated control ([1]; 4 ppm in the spray liquor) | Efficacy in % of the untreated control ([2]; 4 ppm in the spray liquor) | Efficacy in % of the untreated control ([1]; 1 ppm in the spray liquor) | Efficacy in % of the untreated control ([2]; 1 ppm in the spray liquor)
CC1CCN(c2c(-c3c(F)cc(F)cc3F)c(Cl)nc3ncnn23)CC1 [I, 5-chloro-7-(4-methylpiperidin-1-yl)-6-(2,4,6-trifluorophenyl)-[1,2,4]triazolo[1,5-a]pyrimidine] | 33% | 37% |  | 
N#Cc1c[nH]cc1-c1cccc2c1OC(F)(F)O2 [II (fludioxonil), 4-(2,2-difluorobenzo[1,3]dioxol-4-yl)-1H-pyrrole-3-carbonitrile] | 33% | 6% | 0% | 0%
